Data from patent US20250325552A1, “SUBSTITUTED THIADIAZOLYL DERIVATIVES AS DNA POLYMERASE THETA INHIBITORS” (IDEAYA Biosciences, Inc., priority 2020, published 2025).

Target: Polθ theta (1-899) (hPolQ) (Homo sapiens (Human), UniProt O75417)
Assay: Biological Assay 1: Polθ ATPase activity, NADH oxidation-coupled enzymatic assay (10 nM enzyme, 30 min)
Assay type: biochemical
Conditions: Polθ (1-899) 10 nM, 100 μM ATP, 300 nM dT50 ssDNA; Examples 1 to 268; read-out: ATPase NADH coupling:Standard Screening:hPolQ IC50
How it was run: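 ATP turnover was coupled to NADH oxidation and followed at 340 nm every minute for 30 min. Enzyme (residues 1-899, 10 nM) sat with compound for 15 min at room temperature before an equal-volume addition of 100 μM ATP plus 300 nM dT50 ssDNA. Progress-curve slopes from 10-point dilutions were fitted by a four-parameter model.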

Sequence of Polθ theta (1-899) (hPolQ) (O75417 1-899): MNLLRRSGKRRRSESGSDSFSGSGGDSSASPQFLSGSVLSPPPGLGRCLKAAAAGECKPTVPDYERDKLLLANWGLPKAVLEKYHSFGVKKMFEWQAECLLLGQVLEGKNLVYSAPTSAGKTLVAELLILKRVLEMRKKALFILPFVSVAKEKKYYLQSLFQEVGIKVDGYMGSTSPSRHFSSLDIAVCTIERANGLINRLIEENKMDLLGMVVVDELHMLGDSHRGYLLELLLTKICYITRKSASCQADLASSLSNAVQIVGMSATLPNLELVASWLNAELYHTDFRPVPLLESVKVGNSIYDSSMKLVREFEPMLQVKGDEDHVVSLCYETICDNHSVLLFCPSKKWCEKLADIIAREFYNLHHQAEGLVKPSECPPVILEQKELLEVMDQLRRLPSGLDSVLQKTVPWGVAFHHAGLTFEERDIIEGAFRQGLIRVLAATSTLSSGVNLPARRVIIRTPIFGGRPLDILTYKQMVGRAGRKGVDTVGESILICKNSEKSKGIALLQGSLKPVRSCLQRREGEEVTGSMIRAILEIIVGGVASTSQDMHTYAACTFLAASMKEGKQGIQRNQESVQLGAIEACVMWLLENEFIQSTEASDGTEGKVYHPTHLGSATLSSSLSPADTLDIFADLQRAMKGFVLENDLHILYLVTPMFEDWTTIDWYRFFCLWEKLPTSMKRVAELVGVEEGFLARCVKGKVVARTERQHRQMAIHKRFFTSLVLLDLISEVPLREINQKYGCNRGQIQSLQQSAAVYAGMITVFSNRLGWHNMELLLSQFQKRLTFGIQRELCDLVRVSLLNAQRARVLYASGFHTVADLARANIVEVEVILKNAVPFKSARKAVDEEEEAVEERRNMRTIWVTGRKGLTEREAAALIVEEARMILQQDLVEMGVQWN

IC50 [nM] | SMILES
500 to 1000 | COc1ccccc1-c1cc(C)ncc1C(=O)Nc1nnc(OCc2ccc3c(n2)CCNC3)s1 [Example 71, 4-(2-methoxyphenyl)-6-methyl-N-(5-(5,6,7,8-tetrahydro-1,6-naphthyridin-2-ylmethoxy)-1,3,4-thiadiazol-2-yl)pyridine-3-carboxamide]
≤ 200 | COc1cnc(Cl)cc1-c1cc(C)ncc1C(=O)Nc1nnc(OCc2ccc(C(C)(C)OC)cn2)s1 [Example 125, 2′-chloro-5′-methoxy-N-(5-((5-(2-methoxypropan-2-yl)pyridin-2-yl)methoxy)-1,3,4-thiadiazol-2-yl)-6-methyl-(4,4′-bipyridine)-3-carboxamide]
≤ 200 | COc1cnc(Cl)cc1-c1cc(C)ncc1C(=O)Nc1nnc(OCC23COC(C2)C3)s1 [Example 229, N-(5-((2-oxabicyclo(2.1.1)hexan-4-yl)methoxy)-1,3,4-thiadiazol-2-yl)-2′-chloro-5′-methoxy-6-methyl-(4,4′-bipyridine)-3-carboxamide]
≤ 200 | COc1cccc(F)c1-c1cc(C)ncc1C(=O)Nc1nnc(OCc2ccc(C(C)(C)OC)cn2)s1 [Example 80, 4-(2-fluoro-6-methoxyphenyl)-N-(5-((5-(2-methoxypropan-2-yl)pyridin-2-yl)methoxy)-1,3,4-thiadiazol-2-yl)-6-methylnicotinamide]
≤ 200 | COc1cccc(F)c1-c1cc(C)ncc1C(=O)Nc1nnc(OCc2ccc(C(C)(C)C#N)cn2)s1 [Example 88, N-(5-((5-(2-cyanopropan-2-yl)pyridin-2-yl)methoxy)-1,3,4-thiadiazol-2-yl)-4-(2-fluoro-6-methoxyphenyl)-6-methylnicotinamide]
≤ 200 | COc1cccc(F)c1-c1cc(C)ncc1C(=O)Nc1nnc(OCc2ccc(OC3COC3)cn2)s1 [Example 38, 4-(2-fluoro-6-methoxyphenyl)-6-methyl-N-(5-((5-(oxetan-3-yloxy)pyridin-2-yl)methoxy)-1,3,4-thiadiazol-2-yl)pyridine-3-carboxamide]
≤ 200 | COc1cnc(Br)cc1-c1cc(C)ncc1C(=O)Nc1nnc(OCC2CCOC2)s1 (racemic) [Example 260, 2′-bromo-5′-methoxy-6-methyl-N-(5-((tetrahydrofuran-3-yl)methoxy)-1,3,4-thiadiazol-2-yl)-(4,4′-bipyridine)-3-carboxamide]
≤ 200 | COc1cccc(F)c1-c1cc(C)ncc1C(=O)Nc1nnc(OCc2ccn(C)n2)s1 [Example 15, 4-(2-fluoro-6-methoxyphenyl)-6-methyl-N-(5-((1-methylpyrazol-3-yl)methoxy)-1,3,4-thiadiazol-2-yl)pyridine-3-carboxamide]
≤ 200 | COc1cnc(Cl)cc1-c1cc(C)ncc1C(=O)Nc1nnc(OC[C@H]2CC[C@H](OC(F)F)CC2)s1 [Example 159, 2′-chloro-N-(5-(((1r,4r)-4-(difluoromethoxy)cyclohexyl)methoxy)-1,3,4-thiadiazol-2-yl)-5′-methoxy-6-methyl-(4,4′-bipyridine)-3-carboxamide]
500 to 1000 | COc1ccccc1-c1cc(C)ncc1C(=O)Nc1nnc(OC[C@@H](O)c2ccc(Cl)cn2)s1 [Example 28, (S)—N-(5-(2-(5-chloropyridin-2-yl)-2-hydroxyethoxy)-1,3,4-thiadiazol-2-yl)-4-(2-methoxyphenyl)-6-methylnicotinamide]
≤ 200 | COc1cnc(Br)cc1-c1cc(C)ncc1C(=O)Nc1nnc(OC[C@H]2CCOC2)s1 (single isomer, unassigned) [Example 244]
≤ 200 | COc1cnc(C)c(F)c1-c1cc(C)ncc1C(=O)Nc1nnc(OC[C@@H]2CCOC2)s1 [Example 250, 3′-fluoro-5′-methoxy-2′,6-dimethyl-N-(5-(((R)-tetrahydrofuran-3-yl)methoxy)-1,3,4-thiadiazol-2-yl)-(4,4′-bipyridine)-3-carboxamide]
≤ 200 | COc1cnc(Cl)cc1-c1cc(C)ncc1C(=O)Nc1nnc(OCC2(F)CC2)s1 [Example 198, 2′-chloro-N-(5-((1-fluorocyclopropyl)methoxy)-1,3,4-thiadiazol-2-yl)-5′-methoxy-6-methyl-(4,4′-bipyridine)-3-carboxamide]
≤ 200 | COc1cnc(Cl)cc1-c1cc(C)ncc1C(=O)Nc1nnc(OC[C@@H]2COC3(CCC3)C2)s1 (single isomer, unassigned) [Example 226]
≤ 200 | COc1ccc(F)cc1-c1cc(C)ncc1C(=O)Nc1nnc(OCc2ccc(C(C)(C)O)cn2)s1 [Example 63, 4-(5-fluoro-2-methoxyphenyl)-N-(5-((5-(2-hydroxypropan-2-yl)pyridin-2-yl)methoxy)-1,3,4-thiadiazol-2-yl)-6-methylnicotinamide]
≤ 200 | COc1cnc(Cl)cc1-c1cc(C)ncc1C(=O)Nc1nnc(OC[C@H]2CC[C@@H](O)CC2)s1 [Example 128, 2′-chloro-N-(5-(((1s,4s)-4-hydroxycyclohexyl)methoxy)-1,3,4-thiadiazol-2-yl)-5′-methoxy-6-methyl-[4,4′-bipyridine]-3-carboxamide]
≤ 200 | Cc1cc(-c2cc(Cl)ncc2OC(F)F)c(C(=O)Nc2nnc(OC[C@H]3COCCO3)s2)cn1 [Example 234, (R)—N-(5-((1,4-dioxan-2-yl)methoxy)-1,3,4-thiadiazol-2-yl)-2′-chloro-5′-(difluoromethoxy)-6-methyl-(4,4′-bipyridine)-3-carboxamide]
≤ 200 | COc1cnc(Cl)cc1-c1cc(C)ncc1C(=O)Nc1nnc(OC[C@@]2(F)CCOC2)s1 (single isomer, unassigned) [Example 263]
≤ 200 | COc1cnc(Cl)cc1-c1cc(C)ncc1C(=O)Nc1nnc(OCc2cnc(CO)cn2)s1 [Example 145, 2′-chloro-N-(5-((5-(hydroxymethyl)pyrazin-2-yl)methoxy)-1,3,4-thiadiazol-2-yl)-5′-methoxy-6-methyl-(4,4′-bipyridine)-3-carboxamide]
≤ 200 | COc1cnc(C2CC2)cc1-c1cc(C)ncc1C(=O)Nc1nnc(OCc2ccc(C(C)(C)O)cn2)s1 [Example 105, 2′-cyclopropyl-N-(5-((5-(2-hydroxypropan-2-yl)pyridin-2-yl)methoxy)-1,3,4-thiadiazol-2-yl)-5′-methoxy-6-methyl-[4,4′-bipyridine]-3-carboxamide]
≤ 200 | COc1cccc(F)c1-c1cc(C)ncc1C(=O)Nc1nnc(OCc2ccc(C3(C)COC3)cn2)s1 [Example 140, 4-(2-fluoro-6-methoxyphenyl)-6-methyl-N-(5-((5-(3-methyloxetan-3-yl)pyridin-2-yl)methoxy)-1,3,4-thiadiazol-2-yl)nicotinamide]
≤ 200 | COc1cnc(Br)cc1-c1cc(C)ncc1C(=O)Nc1nnc(OC[C@@H]2COCCO2)s1 [Example 235, (S)—N-(5-((1,4-dioxan-2-yl)methoxy)-1,3,4-thiadiazol-2-yl)-2′-bromo-5′-methoxy-6-methyl-(4,4′-bipyridine)-3-carboxamide]
≤ 200 | COc1cnc(C)cc1-c1cc(C)ncc1C(=O)Nc1nnc(OC[C@H]2C[C@@H](O)C2)s1 [Example 118, N-(5-(((1s,3s)-3-hydroxycyclobutyl)methoxy)-1,3,4-thiadiazol-2-yl)-5′-methoxy-2′,6-dimethyl-[4,4′-bipyridine]-3-carboxamide]
≤ 200 | COc1cnc(Cl)cc1-c1cc(C)ncc1C(=O)Nc1nnc(OC[C@]23COC[C@H]2C3)s1 (single isomer, unassigned) [Example 231]
